Measurements as given in patent publication US5672715A, “Herbicidal substituted 3-aryl-pyrazoles” (Monsanto Company, priority 1995, dated 1997).
Read-outs that look alike come from different tables or passages of the source.

Tests used:
Format in all cases: in vivo
Yellow Nutsedge = assay: pre-emergence herbicide test; details: Cyperus, read-out: % plant inhibition
In short: (§1)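 Soil-applied pre-emergence screen: compound added to cover topsoil over sown seeds, pans held on greenhouse bench with subirrigation, % inhibition scored ~2 weeks later.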

Soybean [1] = assay: pre-emergence herbicide test; details: Glycine max, pre-emergence, read-out: % plant inhibition
In short: as §1

Velvetleaf [2] = assay: pre-emergence herbicide test; details: Abutilon theophrasti, pre-emergence, read-out: % plant inhibition
In short: as §1

Corn = assay: pre-emergence herbicide test
In short: as §1

Rice = assay: pre-emergence herbicide test; details: Oryza sativa, read-out: % plant inhibition
In short: as §1

Cocklebur = assay: pre-emergence herbicide test; details: Xanthium strumarium, pre-emergence, read-out: % plant inhibition
In short: as §1

Barnyardgrass [3] = assay: pre-emergence herbicide test; details: Echinochloa crus-galli, pre-emergence, read-out: % plant inhibition
In short: as §1

Morning Glory [4] = assay: pre-emergence herbicide test; details: Ipomoea, pre-emergence, read-out: % plant inhibition
In short: as §1

Yellow Foxtail [5] = assay: pre-emergence herbicide test; details: Setaria, read-out: % plant inhibition
In short: as §1

Common Chickweed = assay: post-emergence herbicide test; details: post-emergence, read-out: % plant inhibition
In short: (§2)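 Each pan is moved to a spraying chamber when plants are two to three weeks old and sprayed by atomizer at 10 psig, delivering 1870 L/Ha containing about 0.4% by volume emulsifier. Greenhouse-grown from seed; percent inhibition scored.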

Soybean [6] = assay: post-emergence herbicide test; details: Glycine max, post-emergence, read-out: % plant inhibition
In short: as §2

Velvetleaf [7] = assay: post-emergence herbicide test; details: Abutilon theophrasti, post-emergence, read-out: % plant inhibition
In short: as §2

Barnyardgrass [8] = assay: post-emergence herbicide test; details: Echinochloa crus-galli, post-emergence, read-out: % plant inhibition
In short: as §2

Blackgrass = assay: post-emergence herbicide test; details: Alopecurus myosuroides, post-emergence, read-out: % plant inhibition; for inhibition at 7.95803 g/ha: 0.0071 lb/A; for inhibition at 40.0143 g/ha: 0.0357 lb/A; for inhibition at 200.072 g/ha: 0.1785 lb/A; for inhibition at 1000.92 g/ha: 0.893 lb/A
In short: as §2

Morning Glory [9] = assay: post-emergence herbicide test; details: Ipomoea, post-emergence, read-out: % plant inhibition
In short: as §2

Yellow Foxtail [10] = assay: post-emergence herbicide test; details: Setaria, read-out: % plant inhibition
In short: as §2

COc1cc(-c2nn(C)c(C(F)(F)F)c2C)c(F)cc1Cl [Compound 37]
45%: inhibition at 1000.92 g/ha (Yellow Nutsedge; 0.893 lb/A) | inhibition at 1000.92 g/ha (Barnyardgrass [8]; 0.893 lb/A) | inhibition at 40.0143 g/ha (Morning Glory [9]; 0.0357 lb/A)
35%: inhibition at 40.0143 g/ha (Yellow Nutsedge; 0.0357 lb/A) | inhibition at 280.212 g/ha (Soybean [1]; 0.25 lb/A) | inhibition at 40.0143 g/ha (Velvetleaf [7]; 0.0357 lb/A)
75%: inhibition at 40.0143 g/ha (Cocklebur; 0.0357 lb/A)
25%: inhibition at 7.95803 g/ha (Corn; Zea mays, pre-emergence, 0.0071 lb/A, read-out: % plant inhibition) | inhibition at 7.95803 g/ha (Rice; 0.0071 lb/A) | inhibition at 7.95803 g/ha (Velvetleaf [7]; 0.0071 lb/A) | inhibition at 40.0143 g/ha (Blackgrass; Table 5a)
10%: inhibition at 7.95803 g/ha (Soybean [6]; 0.0071 lb/A) | inhibition at 7.95803 g/ha (Blackgrass; Table 5a) | inhibition at 200.072 g/ha (Blackgrass; Table 4a)
50%: inhibition at 200.072 g/ha (Yellow Nutsedge; 0.1785 lb/A) | inhibition at 40.0143 g/ha (Soybean [1]; 0.0357 lb/A) | inhibition at 200.072 g/ha (Soybean [1]; 0.1785 lb/A) | inhibition at 40.0143 g/ha (Corn; Zea mays, pre-emergence, 0.0357 lb/A, read-out: % plant inhibition) | inhibition at 200.072 g/ha (Velvetleaf [7]; 0.1785 lb/A)
98%: inhibition at 7.95803 g/ha (Velvetleaf [2]; 0.0071 lb/A) | % plant inhibition (Corn; 0.25 lb/A) | inhibition at 1000.92 g/ha (Cocklebur; 0.893 lb/A) | inhibition at 40.0143 g/ha (Morning Glory [4]; 0.0357 lb/A) | inhibition at 280.212 g/ha (Morning Glory [4]; 0.25 lb/A)
60%: inhibition at 280.212 g/ha (Cocklebur; 0.25 lb/A) | inhibition at 1000.92 g/ha (Soybean [6]; 0.893 lb/A)
80%: inhibition at 200.072 g/ha (Cocklebur; 0.1785 lb/A) | inhibition at 7.95803 g/ha (Barnyardgrass [3]; 0.0071 lb/A) | inhibition at 7.95803 g/ha (Morning Glory [4]; 0.0071 lb/A) | inhibition at 1000.92 g/ha (Common Chickweed; 0.893 lb/A)
70%: inhibition at 200.072 g/ha (Common Chickweed; 0.1785 lb/A)
0%: inhibition at 7.95803 g/ha (Yellow Nutsedge; 0.0071 lb/A) | inhibition at 40.0143 g/ha (Rice; 0.0357 lb/A) | inhibition at 7.95803 g/ha (Common Chickweed; 0.0071 lb/A) | inhibition at 7.95803 g/ha (Barnyardgrass [8]; 0.0071 lb/A) | inhibition at 7.95803 g/ha (Blackgrass; Table 4a) | inhibition at 40.0143 g/ha (Blackgrass; Table 4a) | inhibition at 7.95803 g/ha (Morning Glory [9]; 0.0071 lb/A) | inhibition at 7.95803 g/ha (Yellow Foxtail [10]; 0.0071 lb/A)
65%: inhibition at 200.072 g/ha (Barnyardgrass [8]; 0.1785 lb/A) | inhibition at 200.072 g/ha (Blackgrass; Table 5a) | inhibition at 200.072 g/ha (Yellow Foxtail [10]; 0.1785 lb/A) | inhibition at 1000.92 g/ha (Yellow Foxtail [10]; 0.893 lb/A)
55%: inhibition at 7.95803 g/ha (Yellow Foxtail [5]; 0.0071 lb/A)
90%: inhibition at 200.072 g/ha (Morning Glory [4]; 0.1785 lb/A)
15%: inhibition at 40.0143 g/ha (Barnyardgrass [8]; 0.0357 lb/A) | inhibition at 1000.92 g/ha (Blackgrass; Table 4a)
95%: inhibition at 280.212 g/ha (Corn; Zea mays, pre-emergence, 0.25 lb/A, read-out: % plant inhibition) | inhibition at 40.0143 g/ha (Yellow Foxtail [5]; 0.0357 lb/A) | inhibition at 200.072 g/ha (Morning Glory [9]; 0.1785 lb/A)
100%: inhibition at 1000.92 g/ha (Soybean [1]; 0.893 lb/A) | inhibition at 40.0143 g/ha (Velvetleaf [2]; 0.0357 lb/A) | inhibition at 200.072 g/ha (Velvetleaf [2]; 0.1785 lb/A) | inhibition at 280.212 g/ha (Velvetleaf [2]; 0.25 lb/A) | inhibition at 1000.92 g/ha (Velvetleaf [2]; 0.893 lb/A) | inhibition at 1000.92 g/ha (Corn; Zea mays, pre-emergence, 0.893 lb/A, read-out: % plant inhibition) | inhibition at 1000.92 g/ha (Rice; 0.893 lb/A) | inhibition at 7.95803 g/ha (Cocklebur; 0.0071 lb/A) | inhibition at 40.0143 g/ha (Barnyardgrass [3]; 0.0357 lb/A) | inhibition at 200.072 g/ha (Barnyardgrass [3]; 0.1785 lb/A) | inhibition at 280.212 g/ha (Barnyardgrass [3]; 0.25 lb/A) | inhibition at 1000.92 g/ha (Barnyardgrass [3]; 0.893 lb/A) | inhibition at 1000.92 g/ha (Morning Glory [4]; 0.893 lb/A) | inhibition at 200.072 g/ha (Yellow Foxtail [5]; 0.1785 lb/A) | inhibition at 280.212 g/ha (Yellow Foxtail [5]; 0.25 lb/A) | inhibition at 1000.92 g/ha (Yellow Foxtail [5]; 0.893 lb/A) | inhibition at 1000.92 g/ha (Velvetleaf [7]; 0.893 lb/A) | inhibition at 1000.92 g/ha (Morning Glory [9]; 0.893 lb/A)
20%: inhibition at 7.95803 g/ha (Soybean [1]; 0.0071 lb/A) | inhibition at 40.0143 g/ha (Yellow Foxtail [10]; 0.0357 lb/A)
85%: inhibition at 200.072 g/ha (Corn; Zea mays, pre-emergence, 0.1785 lb/A, read-out: % plant inhibition) | inhibition at 200.072 g/ha (Rice; 0.1785 lb/A) | inhibition at 1000.92 g/ha (Blackgrass; Table 5a)
40%: inhibition at 40.0143 g/ha (Common Chickweed; 0.0357 lb/A) | inhibition at 40.0143 g/ha (Soybean [6]; 0.0357 lb/A) | inhibition at 200.072 g/ha (Soybean [6]; 0.1785 lb/A)
